Test: Sensory evaluation of the MSG-IMP umami composition combined with Formulas II and III by a trained sensory panel
Conditions: for Flavor Profile: trained sensory panel; for Effect on umami flavor of the MSG-IMP mixture (summary statement): combined with MSG-IMP mixture, all tested concentrations
Excerpt: The MSG-IMP mixture (0.01% MSG and 0.005% IMP), an umami composition, was combined with Formulas II and III at different concentrations and evaluated by a trained sensory panel.

[1] = Formula concentration 1 ppm in MSG-IMP mixture (0.01% MSG and 0.005% IMP)
[2] = Formula concentration 500 ppb in MSG-IMP mixture (0.01% MSG and 0.005% IMP)

In the case of `C#CC#CCC/C=C/C(=O)NCC(C)CC` (stereo not shown) [Formula II, (E)-N-(2-methylbutyl)nona-2-en-6,8-diynamide], the “Flavor Profile” value [1] is reported as “Increased umami flavor and less greasy”, the “Flavor Profile” value (Formula concentration 5 ppm in MSG-IMP mixture (0.01% MSG and 0.005% IMP)) is reported as “Strong umami enhancement” and the “Flavor Profile” value [2] is reported as “Increased mouth-feel, savory”. The “Effect on umami flavor of the MSG-IMP mixture (summary statement)” value was “enhanced the umami flavor”.
With `C#CC#CCC/C=C\C(=O)NCC(C)CC` (stereo not shown) [Formula III, (Z)-N-(2-methylbutyl)nona-2-en-6,8-diynamide] the “Flavor Profile” value [1] was “Increased mouthfullness, delocalized”, the “Flavor Profile” value [2] was “Increased mouthfullness, delocalized” and the “Effect on umami flavor of the MSG-IMP mixture (summary statement)” value was “enhanced the umami flavor”.

Reference: US20130011345A1, “FLAVOR-ENHANCING AMIDE COMPOUNDS” (priority 2011, published 2013)
